Paper PMC4994278, “Characterization of a glucose-tolerant β-glucosidase from Anoxybacillus sp. DT3-1” (Biotechnology for Biofuels, 2016)

Target: T1, DT-Bgl (Anoxybacillus gonensis, UniProt M5QUM2)
T1 construct: full-length ORF, 453 residues (no signal peptide), pET-28a BamHI/XhoI, Ni-NTA purified (His tag, removal not mentioned), E. coli BL21(DE3), 53 kDa on SDS-PAGE
Assay: HPLC of cellobiose hydrolysis with added glucose
Assay type: biochemical
Conditions: 400000 µM; substrate cellobiose (1% w/v in substrate assay), 100 mM glycine-NaOH pH 8.5, 60 °C; product inhibition

SMILES: OC[C@H]1OC(O)[C@H](O)[C@@H](O)[C@@H]1O (stereo partly shown) [glucose]
- % relative activity in 0.4 M glucose: 54%
